Drawing on US9474790B2, “Stable, protracted GLP-1/glucagon receptor co-agonists for medical use” (Novo Nordisk A/S, priority 2013, dated 2016), this text covers THT assay Lag time (Ex. 76) for four compounds.

Numbered stars: 1 amine (or outer) side, 2 acyl side, 3 side chain; on linkers, the order of the positions; unused ones are H or OH. Square brackets hold non-standard residues; d marks the D form. Side chains are listed from the residue outwards. Peptide text beside a SMILES is read from it. * marks the point of attachment. C18 diacid = O=C(O)CCCCCCCCCCCCCCCCC(=O)*; γGlu = O=C(O)[C@H](CCC(=O)[*:2])N[*:1]; AEEA = NCCOCCOCC(=O)O; Aib = CC(C)(N)C(=O)O

This data set is described as follows: Thioflavin T (ThT) fibrillation assay for physical stability. The format is physicochemical. Conditions: 250 μM in 10 mM HEPES buffer, pH 7.5, 37° C., shaking 960 rpm. Summed up:
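Fibrillation was followed by ThT (1 μM) fluorescence every 20 min, 444/485 nm, for 250 μM peptide in 10 mM HEPES pH 7.5 shaken at 960 rpm, 37° C. Lag time (t0−2τ) and apparent rate constant (1/τ) come from a sigmoidal fit. Recovery is % of initial concentration remaining soluble after centrifugation and filtration (RP-HPLC).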
As for `CC(C)C[C@H](NC(=O)[C@H](Cc1c[nH]c2ccccc12)NC(=O)[C@H](CCC(N)=O)NC(=O)[C@@H](NC(=O)[C@H](Cc1ccccc1)NC(=O)[C@H](CCC(=O)O)NC(=O)[C@H](CCCNC(=N)N)NC(=O)[C@H](C)NC(=O)[C@H](CCCNC(=N)N)NC(=O)[C@H](CCCNC(=N)N)NC(=O)C(C)(C)NC(=O)[C@H](CC(=O)O)NC(=O)[C@H](CC(C)C)NC(=O)[C@H](Cc1ccc(O)cc1)NC(=O)[C@H](CCCCN)NC(=O)[C@H](CO)NC(=O)[C@H](CC(C)C)NC(=O)[C@H](CC(=O)O)NC(=O)[C@H](CO)NC(=O)[C@@H](NC(=O)[C@H](Cc1ccccc1)NC(=O)[C@@H](NC(=O)CNC(=O)[C@H](CCC(N)=O)NC(=O)C(C)(C)NC(=O)[C@@H](N)Cc1c[nH]cn1)[C@@H](C)O)[C@@H](C)O)C(C)C)C(=O)N[C@@H](CC(C)C)C(=O)N[C@@H](CCCCNC(=O)CC[C@H](NC(=O)CC[C@H](NC(=O)COCCOCCNC(=O)COCCOCCNC(=O)CC[C@H](NC(=O)CCCCCCCCCCCCCCCCC(=O)O)C(=O)O)C(=O)O)C(=O)O)C(=O)N[C@H](C(N)=O)[C@@H](C)O` [Example 51, N^ε28-[(4S)-4-carboxy-4-[[(4S)-4-carboxy-4-[[2-[2-[2-[[2-[2-[2-[[(4S)-4-carboxy-4-(17-carboxyheptadecanoylamino)butanoyl]amino]ethoxy]ethoxy]acetyl]amino]ethoxy]ethoxy]acetyl]amino]butanoyl]amino]butanoyl]-[Aib2,Leu10,Aib16,Arg20,Glu21,Leu27,Lys28]-Glucagon amide] (H-H[Aib]QGTFTSDLSKYLD[Aib]RRAREFVQWLLK([γGlu-γGlu-AEEA-AEEA-γGlu-C18 diacid])T-NH2; N-terminus assumed), the THT assay Lag time (Ex. 76) was determined as 45 h.

Take `CC(C)C[C@H](NC(=O)[C@H](Cc1ccc(O)cc1)NC(=O)[C@H](CCCCN)NC(=O)[C@H](CO)NC(=O)[C@H](CC(C)C)NC(=O)[C@H](CC(=O)O)NC(=O)[C@H](CO)NC(=O)[C@@H](NC(=O)[C@H](Cc1ccccc1)NC(=O)[C@@H](NC(=O)CNC(=O)[C@H](CCC(N)=O)NC(=O)C(C)(C)NC(=O)[C@@H](N)Cc1c[nH]cn1)[C@@H](C)O)[C@@H](C)O)C(=O)N[C@@H](CCC(=O)O)C(=O)N[C@@H](CO)C(=O)N[C@@H](CCCCN)C(=O)N[C@@H](CCCNC(=N)N)C(=O)N[C@@H](C)C(=O)N[C@@H](CCCNC(=N)N)C(=O)N[C@@H](CCC(=O)O)C(=O)N[C@@H](Cc1ccccc1)C(=O)N[C@H](C(=O)N[C@@H](CCC(N)=O)C(=O)N[C@@H](Cc1c[nH]c2ccccc12)C(=O)N[C@@H](CC(C)C)C(=O)N[C@@H](CC(C)C)C(=O)N[C@@H](CCCCNC(=O)CC[C@H](NC(=O)CC[C@H](NC(=O)[C@H](CO)NC(=O)[C@H](CCC(=O)O)NC(=O)[C@H](CO)NC(=O)CC[C@H](NC(=O)CC[C@H](NC(=O)CCCCCCCCCCCCCCCCC(=O)O)C(=O)O)C(=O)O)C(=O)O)C(=O)O)C(=O)N[C@H](C(N)=O)[C@@H](C)O)C(C)C` [Example 52] (H-H[Aib]QGTFTSDLSKYLESKRAREFVQWLLK([γGlu-γGlu-Ser-Glu-Ser-γGlu-γGlu-C18 diacid])T-NH2; N-terminus assumed): the THT assay Lag time (Ex. 76) amounted to 45 h.

On to `CC(C)C[C@H](NC(=O)[C@H](Cc1ccc(O)cc1)NC(=O)[C@H](CCCCN)NC(=O)[C@H](CO)NC(=O)[C@H](CC(C)C)NC(=O)[C@H](CC(=O)O)NC(=O)[C@H](CO)NC(=O)[C@@H](NC(=O)[C@H](Cc1ccccc1)NC(=O)[C@@H](NC(=O)CNC(=O)[C@H](CCC(N)=O)NC(=O)C(C)(C)NC(=O)[C@@H](N)Cc1c[nH]cn1)[C@@H](C)O)[C@@H](C)O)C(=O)N[C@@H](CCC(=O)O)C(=O)N[C@@H](CO)C(=O)N[C@@H](CCCCN)C(=O)N[C@@H](CCCNC(=N)N)C(=O)N[C@@H](C)C(=O)N[C@@H](CCCNC(=N)N)C(=O)N[C@@H](CCC(=O)O)C(=O)N[C@@H](Cc1ccccc1)C(=O)N[C@H](C(=O)N[C@@H](CCC(N)=O)C(=O)N[C@@H](Cc1c[nH]c2ccccc12)C(=O)N[C@@H](CC(C)C)C(=O)N[C@@H](CC(C)C)C(=O)N[C@@H](CCCCNC(=O)CC[C@H](NC(=O)CC[C@H](NC(=O)[C@H](CO)NC(=O)[C@H](CCC(=O)O)NC(=O)[C@H](CO)NC(=O)CC[C@H](NC(=O)CC[C@H](NC(=O)CCCCCCCCCCCCCCCCC(=O)O)C(=O)O)C(=O)O)C(=O)O)C(=O)O)C(=O)N[C@H](C(N)=O)[C@@H](C)O)C(C)C` [Example 54, N^ε28-[(4S)-4-carboxy-4-[[(4S)-4-carboxy-4-[[(2S)-2-[[(2S)-4-carboxy-2-[[(2S)-2-[[(4S)-4-carboxy-4-[[(4S)-4-carboxy-4-(17-carboxyheptadecanoylamino)butanoyl]amino]butanoyl]amino]-3-hydroxypropanoyl]amino]butanoyl]amino]-3-hydroxypropanoyl]amino]butanoyl]amino]butanoyl]-[Aib2,Leu10,Glu15,Lys17,Arg20,Glu21,Leu27,Lys28]-Glucagon amide] (H-H[Aib]QGTFTSDLSKYLESKRAREFVQWLLK([γGlu-γGlu-Ser-Glu-Ser-γGlu-γGlu-C18 diacid])T-NH2; N-terminus assumed), for which the THT assay Lag time (Ex. 76) stood at 45 h.

In turn, `CC(C)C[C@H](NC(=O)[C@H](CC(=O)O)NC(=O)[C@H](CC(C)C)NC(=O)[C@H](Cc1ccc(O)cc1)NC(=O)[C@H](CCCCN)NC(=O)[C@H](CO)NC(=O)[C@H](CC(C)C)NC(=O)[C@H](CC(=O)O)NC(=O)[C@H](CO)NC(=O)[C@@H](NC(=O)[C@H](Cc1ccccc1)NC(=O)[C@@H](NC(=O)CNC(=O)[C@H](CCC(N)=O)NC(=O)C(C)(C)NC(=O)[C@@H](N)Cc1c[nH]cn1)[C@@H](C)O)[C@@H](C)O)C(=O)N[C@@H](CCCNC(=N)N)C(=O)N[C@@H](CCCNC(=N)N)C(=O)N[C@@H](C)C(=O)N[C@@H](CCCNC(=N)N)C(=O)N[C@@H](CC(=O)O)C(=O)N[C@@H](Cc1ccccc1)C(=O)N[C@H](C(=O)N[C@@H](CCC(N)=O)C(=O)N[C@@H](Cc1c[nH]c2ccccc12)C(=O)N[C@@H](CC(C)C)C(=O)N[C@@H](CC(C)C)C(=O)N[C@@H](CCCCNC(=O)CNC(=O)[C@H](CO)NC(=O)[C@H](CCC(=O)O)NC(=O)[C@H](CO)NC(=O)CC[C@H](NC(=O)CC[C@H](NC(=O)CCCCCCCCCCCCCCCCC(=O)O)C(=O)O)C(=O)O)C(=O)N[C@H](C(N)=O)[C@@H](C)O)C(C)C` [Example 55, N^ε28-[2-[[(2S)-2-[[(2S)-4-carboxy-2-[[(2S)-2-[[(4S)-4-carboxy-4-[[(4S)-4-carboxy-4-(17-carboxyheptadecanoylamino)butanoyl]amino]butanoyl]amino]-3-hydroxypropanoyl]amino]butanoyl]amino]-3-hydroxypropanoyl]amino]acetyl]-[Aib2,Leu10,Leu16,Arg20,Leu27,Lys28]-Glucagon amide] (H-H[Aib]QGTFTSDLSKYLDLRRARDFVQWLLK([Gly-Ser-Glu-Ser-γGlu-γGlu-C18 diacid])T-NH2; N-terminus assumed) yielded a THT assay Lag time (Ex. 76) of 45 h.
